# In patent US9604964B2, “Dihydropyrazole GPR40 modulators” (BRISTOL-MYERS SQUIBB COMPANY, priority 2012, dated 2017):
# Molecular target: human GPR40 (Homo sapiens, UniProt O14842)
# Assay: FDSS-based intracellular calcium assay (Human GPR40 in vitro assay)
# Type: cell-based
# Parameters: 3xFLAG; expressed in transfected cells
# Details: intracellular Ca2+ response, cells expressing GPR40; read-out: hGPR40 EC50
# Description: FDSS-based Intracellular Calcium Assay
# Compounds are dissolved in DMSO and diluted to desired concentrations with assay buffer and added to the cells as 3× solution (20 μL per well). Run fluorescence/luminescence reader FDSS (Hamamatsu) to read intracellular Ca^2+ response.
# Sequence of human GPR40 (O14842 whole entry): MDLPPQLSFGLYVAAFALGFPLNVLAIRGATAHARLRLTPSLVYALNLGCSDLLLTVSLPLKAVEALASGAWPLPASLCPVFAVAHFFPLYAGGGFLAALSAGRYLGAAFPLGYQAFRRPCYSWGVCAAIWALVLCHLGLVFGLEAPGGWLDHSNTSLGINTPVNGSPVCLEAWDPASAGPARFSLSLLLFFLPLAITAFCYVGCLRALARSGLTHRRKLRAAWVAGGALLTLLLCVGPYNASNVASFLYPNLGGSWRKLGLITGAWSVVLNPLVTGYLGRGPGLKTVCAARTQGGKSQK
row,SMILES,EC50 [µM]
1,"COc1ccc(F)c(N2C[C@@H]3C[C@H]2CC3Oc2ccc(N3N=C(C(F)(F)F)[C@@H](C)[C@@H]3CC(=O)O)cc2)c1 (stereo partly drawn) [Example 70, 2-((4S,5S)-1-(4-(((1S,4S)-2-(2-fluoro-5-methoxyphenyl)-2-azabicyclo[2.2.1]heptan-5-yl)oxy)phenyl)-4-methyl-3-(trifluoromethyl)-4,5-dihydro-1H-pyrazol-5-yl)acetic acid]",1
2,"COc1cc(N2CCC(Oc3ccc(N4N=C(C#N)C(C)C4CC(=O)O)cc3)C(C)C2)c(Cl)cn1 (single isomer, unassigned) [Example B6, Isomer 1, 2-(1-(4-((1-(5-chloro-2-methoxypyridin-4-yl)-3-methylpiperidin-4-yl)oxy)phenyl)-3-cyano-4-methyl-4,5-dihydro-1H-pyrazol-5-yl)acetic acid]",0.303
3,"CCOc1cc(F)c(F)c(N2CCC(Oc3ccc(N4N=C(c5ccc(F)c(F)c5)[C@@H](C)[C@@H]4CC(=O)O)cc3)CC2)c1 [Example 97, 2-((4S,5S)-3-(3,4-difluorophenyl)-1-(4-((1-(5-ethoxy-2,3-difluorophenyl)piperidin-4-yl)oxy)phenyl)-4-methyl-4,5-dihydro-1H-pyrazol-5-yl)acetic acid]",3.14
4,C[C@@H]1C(C(F)(F)F)=NN(c2ccc(OC3CCN(S(=O)(=O)c4ccccc4C#N)CC3)cc2)[C@H]1CC(=O)O [Example B21],7.95
5,"CCOc1ccc(F)c(N2CCC(Oc3ccc(N4N=C(C#N)C(C)C4CC(=O)O)cc3)CC2)c1 (single isomer, unassigned) [Example B5, Isomer 2, 2-(3-cyano-1-(4-((1-(5-ethoxy-2-fluorophenyl)piperidin-4-yl)oxy)phenyl)-4-methyl-4,5-dihydro-1H-pyrazol-5-yl)acetic acid]",4.95
6,"C[C@@H]1C(C(F)(F)F)=NN(c2ccc(OCC3CN(C(=O)OC(C)(C)C)C3)cc2)[C@H]1CC(=O)O [Example B30, 2-((4S,5S)-1-(4-((1-(tert-Butoxycarbonyl)azetidin-3-yl)methoxy)phenyl)-4-methyl-3-(trifluoromethyl)-4,5-dihydro-1H-pyrazol-5-yl)acetic acid]",2.77
7,"COc1cc(N2CCC(Oc3ccc(N4N=C(C(F)(F)F)[C@@H](C)[C@@H]4CC(=O)O)cc3)C3(CC3)C2)c(Cl)cn1 (stereo partly drawn) [Example B37, 2-((4S,5S)-1-(4-((5-(5-chloro-2-methoxypyridin-4-yl)-5-azaspiro[2.5]octan-8-yl)oxy)phenyl)-4-methyl-3-(trifluoromethyl)-4,5-dihydro-1H-pyrazol-5-yl)acetic acid]",0.774
8,"COc1cccc(N2CC(COc3ccc(N4N=C(C(F)(F)F)[C@@H](C)[C@@H]4CC(=O)O)cc3)C2)c1 [Example B32, 2-((4S,5S)-1-(4-((1-(3-Methoxyphenyl)azetidin-3-yl)methoxy)phenyl)-4-methyl-3-(trifluoromethyl)-4,5-dihydro-1H-pyrazol-5-yl)acetic acid]",1.09
9,"CCOc1ccc(F)c(N2CCC(Oc3ccc(N4N=C(C(F)(F)F)[C@@H](C)[C@@H]4CC(=O)O)cc3)C(OC)C2)c1 (single isomer, unassigned) [Example 31 (Isomer 2)]",0.91
10,"CCCc1cnc(N2CCC(Oc3ccc(N4N=C(C(F)(F)F)[C@@H](C)[C@@H]4CC(=O)O)cc3)CC2)nc1 [Example 5, 2-((4S,5S)-4-methyl-1-(4-((1-(5-propylpyrimidin-2-yl)piperidin-4-yl)oxy)phenyl)-3-(trifluoromethyl)-4,5-dihydro-1H-pyrazol-5-yl)acetic acid]",5.81
11,"C[C@@H]1C(C(F)(F)F)=NN(c2ccc(OC3CCN(S(=O)(=O)c4ccccc4C(F)(F)F)CC3)cc2)[C@H]1CC(=O)O [Example B25, 2-((4S,5S)-4-Methyl-3-(trifluoromethyl)-1-(4-((1-((2-(trifluoromethyl)phenyl)sulfonyl)piperidin-4-yl)oxy)phenyl)-4,5-dihydro-1H-pyrazol-5-yl)acetic acid]",4.42
12,"C[C@@H]1C(C(F)(F)F)=NN(c2ccc(OC3CCN(S(=O)(=O)C4CCCCC4)CC3)cc2)[C@H]1CC(=O)O [Example B22, 2-((4S,5S)-1-(4-((1-(cyclohexylsulfonyl)piperidin-4-yl)oxy)phenyl)-4-methyl-3-(trifluoromethyl)-4,5-dihydro-1H-pyrazol-5-yl)acetic acid]",1.33
13,"COc1cc(N2CC(COc3ccc(N4N=C(C(F)(F)F)[C@@H](C)[C@@H]4CC(=O)O)cc3)C2)c(Cl)cn1 [Example B33, 2-((4S,5S)-1-(4-((1-(5-chloro-2-methoxypyridin-4-yl)azetidin-3-yl)methoxy)phenyl)-4-methyl-3-(trifluoromethyl)-4,5-dihydro-1H-pyrazol-5-yl)acetic acid]",0.713
14,"COc1cc(N2CC(CCc3ccc(N4N=C(C(F)(F)F)[C@@H](C)[C@@H]4CC(=O)O)cc3)C2)c(Cl)cn1 [Example B36, 2-((4S,5S)-1-(4-(2-(1-(5-chloro-2-methoxypyridin-4-yl)azetidin-3-yl)ethyl)phenyl)-4-methyl-3-(trifluoromethyl)-4,5-dihydro-1H-pyrazol-5-yl)acetic acid]",0.591
15,"COc1ccc(F)c(N2C(=O)[C@@H]3C[C@H]2CC3Oc2ccc(N3N=C(C(F)(F)F)[C@@H](C)[C@@H]3CC(=O)O)cc2)c1 (stereo partly drawn) [Example 68, 2-((4S,5S)-1-(4-(((1S,4R)-2-(2-fluoro-5-methoxyphenyl)-3-oxo-2-azabicyclo[2.2.1]heptan-5-yl)oxy)phenyl)-4-methyl-3-(trifluoromethyl)-4,5-dihydro-1H-pyrazol-5-yl)acetic acid]",5.04
16,"COc1ccc(F)c(N2CCCC(Oc3ccc(N4N=C(C(F)(F)F)[C@@H](C)[C@@H]4CC(=O)O)cc3)C2)c1 (mixture of isomers) [Example B26, 2-((4S,5S)-1-(4-((1-(2-fluoro-5-methoxyphenyl)piperidin-3-yl)oxy)phenyl)-4-methyl-3-(trifluoromethyl)-4,5-dihydro-1H-pyrazol-5-yl)acetic acid]",4.23
17,"CCOc1ccc(F)c(N2CCC(Cc3ccc(N4N=C(C(F)(F)F)[C@@H](C)[C@@H]4CC(=O)O)cc3)C(C)C2)c1 (single isomer, unassigned) [Example 3 (Isomer 3)]",1.14
18,"C[C@@H]1C(C(F)(F)F)=NN(c2ccc(OC3CCN(S(=O)(=O)C4CCCC4)CC3)cc2)[C@H]1CC(=O)O [Example B24, 2-((4S,5S)-1-(4-((1-(Cyclopentylsulfonyl)piperidin-4-yl)oxy)phenyl)-4-methyl-3-(trifluoromethyl)-4,5-dihydro-1H-pyrazol-5-yl)acetic acid]",3.6
19,"C[C@@H]1C(C(F)(F)F)=NN(c2ccc(CC3C4CCC3CN(C(=O)OCc3ccccc3)C4)cc2)[C@H]1CC(=O)O (stereo partly drawn) [Example B11, 2-((4S,5S)-1-(4-(((1R,5S,8S)-3-((benzyloxy)carbonyl)-3-azabicyclo[3.2.1]octan-8-yl)methyl)phenyl)-4-methyl-3-(trifluoromethyl)-4,5-dihydro-1H-pyrazol-5-yl)acetic acid]",7.38
20,"C[C@@H]1C(C(F)(F)F)=NN(c2ccc(OC3CCN(c4nccc(C(F)(F)F)n4)CC3)cc2)[C@H]1CC(=O)O [Example 20, 2-((4S,5S)-4-methyl-3-(trifluoromethyl)-1-(4-((1-(4-(trifluoromethyl)pyrimidin-2-yl)piperidin-4-yl)oxy)phenyl)-4,5-dihydro-1H-pyrazol-5-yl)acetic acid]",1.42
21,"COc1cc(N2CC3CCC(C2)C3Cc2ccc(N3N=C(C(F)(F)F)[C@@H](C)[C@@H]3CC(=O)O)cc2)c(Cl)cn1 (stereo partly drawn) [Example B13, 2-((4S,5S)-1-(4-(((1R,5S,8S)-3-(5-chloro-2-methoxypyridin-4-yl)-3-azabicyclo[3.2.1]octan-8-yl)methyl)phenyl)-4-methyl-3-(trifluoromethyl)-4,5-dihydro-1H-pyrazol-5-yl)acetic acid]",2.2
22,"C[C@@H]1C(C(F)(F)F)=NN(c2ccc(OC3CCN(c4cc5c(cc4Cl)CCO5)CC3)cc2)[C@H]1CC(=O)O [Example 4, 2-((4S,5S)-1-(4-((1-(5-chloro-2,3-dihydrobenzofuran-6-yl)piperidin-4-yl)oxy)phenyl)-4-methyl-3-(trifluoromethyl)-4,5-dihydro-1H-pyrazol-5-yl)acetic acid]",1.04
23,"Cc1nc2ccc(N3CCC(Oc4ccc(N5N=C(C(F)(F)F)[C@@H](C)[C@@H]5CC(=O)O)cc4)CC3)cc2o1 [Example B18, 2-((4S,5S)-4-Methyl-1-(4-((1-(2-methylbenzo[d]oxazol-6-yl)piperidin-4-yl)oxy)phenyl)-3-(trifluoromethyl)-4,5-dihydro-1H-pyrazol-5-yl)acetic acid]",5.2
24,"CC(C)CS(=O)(=O)N1CCC(Oc2ccc(N3N=C(C(F)(F)F)[C@@H](C)[C@@H]3CC(=O)O)cc2)CC1 [Example B23, 2-((4S,5S)-1-(4-((1-(isobutylsulfonyl)piperidin-4-yl)oxy)phenyl)-4-methyl-3-(trifluoromethyl)-4,5-dihydro-1H-pyrazol-5-yl)acetic acid]",2
25,"COc1cccc(N2CCC(Cc3ccc(N4N=C(C(F)(F)F)[C@@H](C)[C@@H]4CC(=O)O)cc3)CC2)c1 [Example B8, 2-((4S,5S)-1-(4-((1-(3-methoxyphenyl)piperidin-4-yl)methyl)phenyl)-4-methyl-3-(trifluoromethyl)-4,5-dihydro-1H-pyrazol-5-yl)acetic acid]",0.761
26,"C[C@@H]1C(C(F)(F)F)=NN(c2ccc(OC3CCN(c4ccc(C(F)(F)F)cn4)CC3)cc2)[C@H]1CC(=O)O [Example 6, 2-((4S,5S)-4-methyl-3-(trifluoromethyl)-1-(4-((1-(5-(trifluoromethyl)pyridin-2-yl)piperidin-4-yl)oxy)phenyl)-4,5-dihydro-1H-pyrazol-5-yl)acetic acid]",7.52
27,"COc1ccnc(N2CCC(Oc3ccc(N4N=C(C(F)(F)F)[C@@H](C)[C@@H]4CC(=O)O)cc3)CC2)n1 [Example B28, 2-((4S,5S)-1-(4-((1-(4-methoxypyrimidin-2-yl)piperidin-4-yl)oxy)phenyl)-4-methyl-3-(trifluoromethyl)-4,5-dihydro-1H-pyrazol-5-yl)acetic acid]",5.27
